From patent publication US8415469B2, “Compounds and methods for kinase modulation, and indications therefor” (Plexxikon Inc., priority 2005, dated 2013)

How the values were obtained:
Format in all cases: biochemical
Kit = target: T1, Kit (Homo sapiens, UniProt P10721); experiment: AlphaScreen kinase assay, Kit; details: read-out: IC50, activity toward kinase Kit
T1 construct: P1332.N6 BI PTP KIT M552-K948-X COD; His6 (N); made in house; host or cells: E. coli (PTP1B co-expressed)

p38 = target: T2, p38 (Homo sapiens, UniProt Q16539); experiment: AlphaScreen kinase assay, p38; details: read-out: IC50, activity toward kinase p38
T2 construct: P4292.pET15S P38A M1-S360-X MKK6DD; His6 with thrombin site (N); made in house
T2 sequence (Q16539 with tags, fused parts or gaps): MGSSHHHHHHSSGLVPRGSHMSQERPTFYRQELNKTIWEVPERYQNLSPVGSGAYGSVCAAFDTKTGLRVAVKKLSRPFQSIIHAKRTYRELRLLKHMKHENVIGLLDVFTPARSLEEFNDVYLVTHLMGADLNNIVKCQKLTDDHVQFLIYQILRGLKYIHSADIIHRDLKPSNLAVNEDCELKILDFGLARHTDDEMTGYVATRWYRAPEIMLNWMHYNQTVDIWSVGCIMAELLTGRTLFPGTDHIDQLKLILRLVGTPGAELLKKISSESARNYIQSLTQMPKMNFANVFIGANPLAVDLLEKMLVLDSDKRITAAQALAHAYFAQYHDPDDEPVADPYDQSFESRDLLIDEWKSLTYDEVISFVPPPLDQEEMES
From the text: (§2) AlphaScreen assay was used to screen additional kinases. The assay is similarly dependent on the phosphorylation of a peptide substrate. In this assay, an antibody that recognizes phosphorylated substrate is bound to an acceptor bead. The peptide substrate is attached to biotin, which binds to a donor head that contains streptavidin. Thus phosphorylated substrate is bound by antibody and streptavidin, bringing the donor and acceptor heads into close proximity when kinase is not inhibited. The donor produces singlet oxygen which results in emission from the acceptor when they are in close proximity. Conversely, when kinase is inhibited, the donor and acceptor beads are not associated and the emission from the acceptor is reduced.
(§3) AlphaScreen assays were done using compounds dissolved in DMSO to a concentration of 20 mM. The compounds were diluted accordingly to the desired final concentrations in each sample well, using 1:3 serial dilution for a total of 8 concentration points. Plates were prepared such that each kinase reaction is 20 μl in 1× kinase buffer, 5% DMSO and 10 μM ATP. After incubation of the kinase reaction for 1 hour at room temperature, 5 μl of donor beads in stop buffer (50 mM EDTA in 1× kinase buffer) was added, the sample was mixed and incubated for 20 minutes at room temperature before adding 5 μl of acceptor beads in stop buffer. The samples were incubated for 60 minutes at room temperature and the signal per well was read on AlphaQuest reader.

Kdr = target: T3, Kdr (Homo sapiens, UniProt P35968); experiment: Z'-Lyte FRET kinase assay (Invitrogen), Kdr; details: read-out: IC50, activity toward kinase Kdr
T3 construct: purchased Invitrogen (assay run by Invitrogen)
T3 sequence (P35968 20-1356): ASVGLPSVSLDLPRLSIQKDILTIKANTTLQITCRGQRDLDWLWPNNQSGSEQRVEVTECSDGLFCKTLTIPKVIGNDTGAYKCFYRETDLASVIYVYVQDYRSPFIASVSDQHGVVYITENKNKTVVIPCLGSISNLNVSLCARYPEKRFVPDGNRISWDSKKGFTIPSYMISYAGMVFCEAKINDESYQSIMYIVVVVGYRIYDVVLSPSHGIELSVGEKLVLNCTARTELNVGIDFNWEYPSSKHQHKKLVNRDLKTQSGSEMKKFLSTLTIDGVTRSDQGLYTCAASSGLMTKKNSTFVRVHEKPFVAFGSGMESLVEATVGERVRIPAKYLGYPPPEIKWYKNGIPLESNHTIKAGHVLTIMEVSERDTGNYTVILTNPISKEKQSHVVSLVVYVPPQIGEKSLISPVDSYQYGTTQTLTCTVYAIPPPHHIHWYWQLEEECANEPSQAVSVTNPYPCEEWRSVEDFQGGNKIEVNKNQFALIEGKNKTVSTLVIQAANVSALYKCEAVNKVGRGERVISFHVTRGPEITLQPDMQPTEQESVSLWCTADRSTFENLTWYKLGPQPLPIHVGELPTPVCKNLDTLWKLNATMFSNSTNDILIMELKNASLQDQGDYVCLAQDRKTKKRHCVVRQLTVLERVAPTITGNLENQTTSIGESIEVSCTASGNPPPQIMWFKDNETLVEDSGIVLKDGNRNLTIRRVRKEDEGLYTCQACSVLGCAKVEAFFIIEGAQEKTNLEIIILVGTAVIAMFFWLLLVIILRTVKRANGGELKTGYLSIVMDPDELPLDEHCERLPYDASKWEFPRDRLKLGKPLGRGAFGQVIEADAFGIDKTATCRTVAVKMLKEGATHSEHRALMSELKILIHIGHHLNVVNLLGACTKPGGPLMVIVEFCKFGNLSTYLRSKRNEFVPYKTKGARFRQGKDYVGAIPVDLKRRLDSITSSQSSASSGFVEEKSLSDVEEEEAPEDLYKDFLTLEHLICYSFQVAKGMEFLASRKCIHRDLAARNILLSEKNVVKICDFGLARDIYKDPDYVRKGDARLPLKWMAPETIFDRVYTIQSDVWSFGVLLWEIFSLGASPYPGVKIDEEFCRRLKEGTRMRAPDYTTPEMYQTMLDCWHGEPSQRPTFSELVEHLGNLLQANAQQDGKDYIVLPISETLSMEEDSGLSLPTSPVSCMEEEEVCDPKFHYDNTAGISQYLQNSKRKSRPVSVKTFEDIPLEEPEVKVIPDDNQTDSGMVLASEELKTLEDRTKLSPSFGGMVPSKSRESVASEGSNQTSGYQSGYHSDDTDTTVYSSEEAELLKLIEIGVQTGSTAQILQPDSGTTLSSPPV

Flt4 = target: T4, Flt4 (Homo sapiens, UniProt P35916); experiment: AlphaScreen kinase assay, Flt4; details: read-out: IC50, activity toward kinase Flt4
T4 construct: purchased ProQinase GmbH (Freiburg, Germany)
T4 sequence (P35916 25-1363): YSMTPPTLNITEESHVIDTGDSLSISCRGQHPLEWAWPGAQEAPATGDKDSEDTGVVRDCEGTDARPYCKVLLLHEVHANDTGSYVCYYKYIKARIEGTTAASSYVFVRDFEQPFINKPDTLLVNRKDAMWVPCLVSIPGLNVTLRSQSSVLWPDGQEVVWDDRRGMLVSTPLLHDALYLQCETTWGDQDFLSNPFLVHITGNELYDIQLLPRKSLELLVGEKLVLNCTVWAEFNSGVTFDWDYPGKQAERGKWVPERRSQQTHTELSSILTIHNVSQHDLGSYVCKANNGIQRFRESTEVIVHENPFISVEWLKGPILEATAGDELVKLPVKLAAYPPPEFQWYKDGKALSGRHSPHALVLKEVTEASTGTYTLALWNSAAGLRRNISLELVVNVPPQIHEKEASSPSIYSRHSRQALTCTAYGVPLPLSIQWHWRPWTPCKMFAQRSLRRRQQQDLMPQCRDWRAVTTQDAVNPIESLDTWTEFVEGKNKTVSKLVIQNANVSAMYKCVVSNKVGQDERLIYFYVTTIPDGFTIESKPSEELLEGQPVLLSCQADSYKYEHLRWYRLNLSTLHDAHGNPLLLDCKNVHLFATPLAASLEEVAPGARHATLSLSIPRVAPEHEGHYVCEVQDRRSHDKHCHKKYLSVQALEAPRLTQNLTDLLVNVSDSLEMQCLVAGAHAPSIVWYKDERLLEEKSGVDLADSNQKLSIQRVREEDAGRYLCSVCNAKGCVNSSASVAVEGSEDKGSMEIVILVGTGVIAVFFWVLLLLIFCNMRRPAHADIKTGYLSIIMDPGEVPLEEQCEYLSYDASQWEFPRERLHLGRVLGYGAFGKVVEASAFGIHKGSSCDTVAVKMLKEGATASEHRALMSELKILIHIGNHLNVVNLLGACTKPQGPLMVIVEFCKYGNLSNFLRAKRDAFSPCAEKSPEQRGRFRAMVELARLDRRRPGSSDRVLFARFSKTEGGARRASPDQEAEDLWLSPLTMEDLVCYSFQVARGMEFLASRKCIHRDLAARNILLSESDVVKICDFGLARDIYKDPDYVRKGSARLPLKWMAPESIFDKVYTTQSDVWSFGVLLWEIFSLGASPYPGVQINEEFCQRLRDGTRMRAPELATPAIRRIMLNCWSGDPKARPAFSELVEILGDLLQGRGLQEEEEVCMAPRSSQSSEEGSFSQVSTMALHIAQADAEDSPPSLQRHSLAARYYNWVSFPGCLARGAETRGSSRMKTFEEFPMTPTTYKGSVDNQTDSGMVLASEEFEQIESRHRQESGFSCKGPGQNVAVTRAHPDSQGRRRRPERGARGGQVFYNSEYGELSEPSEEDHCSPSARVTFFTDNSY
Summary of the method: (§1)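 Uses phospho-specific antibody on acceptor beads plus streptavidin donor beads capturing biotinylated peptide substrate; singlet oxygen from donor excites nearby acceptor. Inhibitors tested in 8-point, 1:3 titrations starting from 20 mM DMSO solutions.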

Flt1 = target: T5, Flt1 (Homo sapiens, UniProt P17948); experiment: AlphaScreen kinase assay, Flt1; details: read-out: IC50, activity toward kinase Flt1
T5 construct: P1826.pETN6 BI-PTP FLT1 M799-D1165-X WT; His6 (N); made in house; host or cells: E. coli (PTP1B co-expressed)
T5 sequence (P17948 with tags, fused parts or gaps): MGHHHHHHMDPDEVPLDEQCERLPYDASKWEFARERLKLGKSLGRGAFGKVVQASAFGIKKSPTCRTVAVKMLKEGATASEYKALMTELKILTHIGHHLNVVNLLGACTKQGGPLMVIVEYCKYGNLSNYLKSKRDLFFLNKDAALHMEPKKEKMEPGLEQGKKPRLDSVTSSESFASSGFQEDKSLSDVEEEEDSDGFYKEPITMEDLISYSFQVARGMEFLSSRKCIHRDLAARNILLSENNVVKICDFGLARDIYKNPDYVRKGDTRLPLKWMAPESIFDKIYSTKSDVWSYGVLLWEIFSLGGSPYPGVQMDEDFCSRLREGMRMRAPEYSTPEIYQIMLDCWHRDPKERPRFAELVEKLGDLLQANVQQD

FGFR1 = target: T6, FGFR1 (Homo sapiens, UniProt P11362, C488A/C584S); experiment: AlphaScreen kinase assay, FGFR1; details: read-out: IC50, activity toward kinase FGFR
T6 construct: P1351.pET N6 BI-PTP FGFR A458-E765-X C488A, C584S; made in house; host or cells: E. coli (PTP1B co-expressed)
T6 sequence (P11362 458-765 C488A/C584S): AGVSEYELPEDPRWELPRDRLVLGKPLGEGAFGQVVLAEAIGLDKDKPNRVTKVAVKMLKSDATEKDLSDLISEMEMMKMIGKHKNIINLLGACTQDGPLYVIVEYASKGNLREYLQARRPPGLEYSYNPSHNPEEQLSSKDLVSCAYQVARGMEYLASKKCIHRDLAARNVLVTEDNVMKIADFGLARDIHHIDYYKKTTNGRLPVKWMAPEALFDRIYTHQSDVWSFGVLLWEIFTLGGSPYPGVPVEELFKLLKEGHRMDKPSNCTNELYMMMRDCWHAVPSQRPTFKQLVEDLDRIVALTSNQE

Ret = target: T7, Ret (Homo sapiens, UniProt P07949); experiment: AlphaScreen kinase assay, Ret; details: read-out: IC50, activity toward kinase Ret
T7 construct: P1378.pET-SF BI-PTP RET H661-R1012 HIS; made in house
T7 sequence (P07949 with tags, fused parts or gaps): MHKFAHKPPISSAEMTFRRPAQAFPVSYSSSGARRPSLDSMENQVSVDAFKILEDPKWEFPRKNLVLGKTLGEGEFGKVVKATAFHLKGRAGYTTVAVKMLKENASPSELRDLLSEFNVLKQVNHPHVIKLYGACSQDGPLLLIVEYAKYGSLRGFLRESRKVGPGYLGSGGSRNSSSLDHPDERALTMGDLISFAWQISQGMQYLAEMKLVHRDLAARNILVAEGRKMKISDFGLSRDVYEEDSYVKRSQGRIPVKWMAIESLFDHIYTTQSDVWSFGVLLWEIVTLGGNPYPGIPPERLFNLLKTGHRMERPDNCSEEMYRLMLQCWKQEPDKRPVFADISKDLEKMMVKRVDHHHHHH

Abl = target: T8, Abl (Homo sapiens, UniProt P00519); experiment: AlphaScreen kinase assay, Abl; details: read-out: activity toward kinase Abl, IC50
T8 construct: P1121. pET-SPEC BI-PTP Abl G227-V515-X; His6 (N); made in house; host or cells: E. coli (PTP1B co-expressed)
T8 sequence (P00519 with tags, fused parts or gaps): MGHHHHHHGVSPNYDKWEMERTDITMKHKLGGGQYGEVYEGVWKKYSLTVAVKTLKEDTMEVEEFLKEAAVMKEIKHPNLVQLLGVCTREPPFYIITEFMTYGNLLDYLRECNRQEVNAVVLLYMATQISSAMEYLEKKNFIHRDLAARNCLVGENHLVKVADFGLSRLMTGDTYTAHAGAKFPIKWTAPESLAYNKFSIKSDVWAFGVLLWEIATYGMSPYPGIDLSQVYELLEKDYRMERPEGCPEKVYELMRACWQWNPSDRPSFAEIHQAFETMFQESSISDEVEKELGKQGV
Summary of the method: as §1

Stk6 = target: T9, Stk6 (Homo sapiens, UniProt O14965); experiment: Z'-Lyte FRET kinase assay (Invitrogen), Stk6; details: read-out: IC50, activity toward kinase Stk6
T9 construct: purchased Invitrogen (Carlsbad, Calif.), screening service
T9 sequence (O14965 1-403): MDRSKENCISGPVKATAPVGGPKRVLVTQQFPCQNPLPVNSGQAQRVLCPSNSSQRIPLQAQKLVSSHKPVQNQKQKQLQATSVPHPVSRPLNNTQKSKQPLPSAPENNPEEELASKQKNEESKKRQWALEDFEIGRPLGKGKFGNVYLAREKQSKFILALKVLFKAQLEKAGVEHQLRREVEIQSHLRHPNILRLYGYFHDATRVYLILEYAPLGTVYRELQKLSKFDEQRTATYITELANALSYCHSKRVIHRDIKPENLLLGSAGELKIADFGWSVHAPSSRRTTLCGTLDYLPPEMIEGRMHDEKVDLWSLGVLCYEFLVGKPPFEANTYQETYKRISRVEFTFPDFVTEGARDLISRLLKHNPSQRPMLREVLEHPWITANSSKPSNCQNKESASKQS

Irak4 = target: T10, Irak4 (Homo sapiens, UniProt Q9NWZ3); experiment: Z'-Lyte FRET kinase assay (Invitrogen), Irak4; details: read-out: IC50, activity toward kinase Irak4
T10 construct: purchased Invitrogen (assay run by Invitrogen)
T10 sequence (Q9NWZ3 1-460): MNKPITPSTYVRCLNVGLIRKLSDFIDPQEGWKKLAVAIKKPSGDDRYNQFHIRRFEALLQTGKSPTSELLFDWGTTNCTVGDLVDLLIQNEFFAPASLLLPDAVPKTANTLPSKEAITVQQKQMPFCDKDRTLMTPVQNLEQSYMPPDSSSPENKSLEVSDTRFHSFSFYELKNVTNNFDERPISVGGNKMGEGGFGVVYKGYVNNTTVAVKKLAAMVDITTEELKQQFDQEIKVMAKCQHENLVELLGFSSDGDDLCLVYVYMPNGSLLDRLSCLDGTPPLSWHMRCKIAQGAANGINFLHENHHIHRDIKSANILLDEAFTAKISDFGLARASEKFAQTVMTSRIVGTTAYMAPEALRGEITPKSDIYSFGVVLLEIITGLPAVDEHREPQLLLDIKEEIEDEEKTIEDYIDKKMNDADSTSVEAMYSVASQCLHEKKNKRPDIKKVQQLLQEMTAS
From the text: The effect of potential modulators of kinase activity can be measured in a variety of different assays known in the art. For example, direct radiometric, indirect FRET or AlphaScreen assays may be used to assess the level of phosphorylation of a substrate in the presence of test compounds in order to determine the inhibitory affect of the compound on the kinase. Invitrogen (Carlsbad, Calif.) uses a FRET based assay for Btk, EGFR, EphB2, Flt3, lrak4, Kdr, MAP2K1, MAPKAPK2, PDGFRB, PKC theta, Stk6 and Yes. For these assays, compounds of the invention were screened by Invitrogen using Z′-Lyte™ kinase assay.
Briefly, the Invitrogen kinase assay involves use of a specific peptide substrate optimized for each kinase, containing a fluorophore at each end that make up the FRET pair. The peptide sensitivity to proteolytic cleavage depends on phosphorylation of the peptide. Non-phosphorylated peptide is cleaved by a protease while peptide phosphorylated by the kinase is not cleaved. Cleavage of the peptide disrupts the FRET between the donor (coumarin) and acceptor (fluorescein) fluorophores, resulting in an increase in the ratio of donor emission to acceptor emission. The emission ratio of coumarin to fluorescein is used to assess the reaction progress. The extent of phosphorylation is determined from the emission ratio, which is low when the kinase is active (phosphorylated peptide is not cleaved, FRET pair connected) or higher for inhibited kinase (non-phosphorylated peptide is cleaved, FRET pair separated). Thus, the assay involves a kinase reaction in the presence of varying concentrations of a given compound, a development reaction with site specific protease, and detection of the fluorescent emission ratio of coumarin and fluorscein. […] Reaction conditions for each kinase are determined to provide optimal reaction times, incubation temperature, kinase and ATP concentrations. Test samples are made up in 1× kinase buffer (50 mM HEPES pH 7.5, 50 mM MgCl2, 5 mM EGTA, 0.05% BRIJ-35) and compound at desired concentration prepared in DMSO such that the final DMSO is 1%. […] Typically, assay plates are prepared to 10 μl final volume per sample, adding 2.5 μl of compound at 4× the desired concentration in 4% DMSO (serial dilution of compound provides concentration curve), 5 μl of the desired kinase mixed with Z′-LYTE™ peptide substrate (2× in 2× kinase buffer, final peptide at 2 μM), and 2.5 μl of 4×ATP solution. All kinase except for MAP2K1 were at 10 μM ATP in the kinase reaction, while MAP2K1 was at 100 μM. Samples are mixed and the kinase reaction is incubated 1 hour at room temperature, after which 5 μl of development solution is added and mixed. After incubation for another 1 hour at room temperature, 5 μl of stop reagent is added to each sample and mixed. The fluorescence signals are measured to determine the emission ratio.

IKK beta = target: T11, IKK beta (Homo sapiens, UniProt O14920); experiment: AlphaScreen kinase assay, IKK beta; details: read-out: IC50, activity toward kinase IKK beta
T11 sequence (O14920 1-756): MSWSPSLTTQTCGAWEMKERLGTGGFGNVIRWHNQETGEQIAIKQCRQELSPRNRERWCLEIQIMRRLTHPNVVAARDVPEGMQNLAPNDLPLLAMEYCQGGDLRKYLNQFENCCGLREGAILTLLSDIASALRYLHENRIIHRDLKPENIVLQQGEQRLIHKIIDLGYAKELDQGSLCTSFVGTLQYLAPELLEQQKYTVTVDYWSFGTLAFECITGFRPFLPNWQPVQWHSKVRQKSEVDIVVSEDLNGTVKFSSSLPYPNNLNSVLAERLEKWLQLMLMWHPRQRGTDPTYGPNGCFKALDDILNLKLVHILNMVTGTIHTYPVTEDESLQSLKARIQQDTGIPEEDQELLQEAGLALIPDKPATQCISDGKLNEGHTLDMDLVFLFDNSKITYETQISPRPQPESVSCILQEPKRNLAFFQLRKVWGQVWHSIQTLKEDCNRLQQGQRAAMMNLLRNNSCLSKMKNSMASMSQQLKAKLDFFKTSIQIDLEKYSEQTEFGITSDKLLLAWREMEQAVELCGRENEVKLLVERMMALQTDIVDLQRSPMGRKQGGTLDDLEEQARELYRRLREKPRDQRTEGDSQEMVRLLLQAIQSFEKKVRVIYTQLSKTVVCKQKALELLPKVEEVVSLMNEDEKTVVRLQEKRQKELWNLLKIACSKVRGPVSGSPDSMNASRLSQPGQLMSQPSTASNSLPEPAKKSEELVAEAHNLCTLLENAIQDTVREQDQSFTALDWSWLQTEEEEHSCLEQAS
From the text: as §2, §3

MAP2K1 = target: T12, MAP2K1 (Homo sapiens, UniProt Q02750); experiment: Z'-Lyte FRET kinase assay (Invitrogen), MAP2K1; details: read-out: IC50, activity toward kinase MAP2K1
T12 construct: purchased Invitrogen (assay run by Invitrogen)
T12 sequence (Q02750 whole entry): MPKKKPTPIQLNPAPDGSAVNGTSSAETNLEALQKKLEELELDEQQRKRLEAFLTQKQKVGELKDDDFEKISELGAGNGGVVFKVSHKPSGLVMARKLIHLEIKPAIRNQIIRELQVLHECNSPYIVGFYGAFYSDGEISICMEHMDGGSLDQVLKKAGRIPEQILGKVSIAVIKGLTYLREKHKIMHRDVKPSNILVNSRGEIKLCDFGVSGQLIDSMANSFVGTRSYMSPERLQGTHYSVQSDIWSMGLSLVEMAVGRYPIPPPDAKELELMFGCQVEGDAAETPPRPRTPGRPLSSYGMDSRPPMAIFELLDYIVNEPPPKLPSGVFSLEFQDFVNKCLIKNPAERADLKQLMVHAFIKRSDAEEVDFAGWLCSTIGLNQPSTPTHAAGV

MAP4K4 = MAP4K4 (Homo sapiens, UniProt O95819); experiment: AlphaScreen kinase assay, MAP4K4; details: read-out: IC50, activity toward kinase MAP4K4
Met = target: T13, Met (Homo sapiens, UniProt P08581); experiment: AlphaScreen kinase assay, Met; details: read-out: IC50, activity toward kinase Met
T13 construct: P1818.pETN6 BI-PTP MET G1056-G1364-X WT; His6 (N); made in house; host or cells: E. coli (PTP1B co-expressed)
T13 sequence (P08581 with tags, fused parts or gaps): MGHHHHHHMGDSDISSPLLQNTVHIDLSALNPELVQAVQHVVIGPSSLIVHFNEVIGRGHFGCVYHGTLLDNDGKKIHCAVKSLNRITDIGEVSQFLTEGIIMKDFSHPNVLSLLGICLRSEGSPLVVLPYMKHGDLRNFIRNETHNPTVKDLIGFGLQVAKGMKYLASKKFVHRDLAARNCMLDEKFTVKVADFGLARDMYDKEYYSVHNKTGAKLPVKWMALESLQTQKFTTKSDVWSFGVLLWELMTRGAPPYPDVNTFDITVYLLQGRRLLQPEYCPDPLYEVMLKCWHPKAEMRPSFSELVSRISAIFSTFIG
Summary of the method: as §1

Measured: IC50

T1 sequence (P10721 with tags, fused parts or gaps): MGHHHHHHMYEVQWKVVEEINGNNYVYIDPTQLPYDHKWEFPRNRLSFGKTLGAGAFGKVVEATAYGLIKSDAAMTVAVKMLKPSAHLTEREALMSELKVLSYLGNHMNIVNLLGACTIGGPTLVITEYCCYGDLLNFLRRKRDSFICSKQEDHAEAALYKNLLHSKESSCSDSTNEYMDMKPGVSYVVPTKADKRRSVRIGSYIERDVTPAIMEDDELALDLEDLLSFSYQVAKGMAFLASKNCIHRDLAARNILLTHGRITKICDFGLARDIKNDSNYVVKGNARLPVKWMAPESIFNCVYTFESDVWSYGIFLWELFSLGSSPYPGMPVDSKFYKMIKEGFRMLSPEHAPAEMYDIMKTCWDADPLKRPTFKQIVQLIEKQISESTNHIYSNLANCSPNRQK

O=C(c1ccccc1F)c1c[nH]c2ncc(-c3cccnc3)cc12 [Compound P-0708]
≤ 10 µM: Kit | p38 | Kdr | Flt4 | Flt1 | FGFR1 | Ret | Abl

Nc1cccc(-c2c[nH]c3ncccc23)c1 [Compound P-0091]
≤ 10 µM: Stk6 | Irak4 | Kdr | Flt1

OCc1cccc(-c2c[nH]c3ncccc23)c1 [Compound P-0087]
≤ 10 µM: Stk6 | Irak4 | Kdr | IKK beta | MAP2K1

c1cnc2[nH]cc(-c3ccncc3)c2c1 [Compound P-0130]
≤ 10 µM: Irak4 | Kdr | MAP4K4

Brc1ccc(/C=C\c2c[nH]c3ncccc23)cc1 [Compound P-0511]
≤ 10 µM: Kit | p38

CC(=O)Nc1cccc(-c2c[nH]c3ncccc23)c1 [Compound P-0076]
≤ 10 µM: Stk6 | Irak4 | Kdr | Met | MAP2K1
